Calls of active or inactive are those of the source. Cut-off read from the data, not from the text of the source, for most assays here: actives have a measured EC50 and inactives only a lower limit. Where only a bound is given, the exact number is not on record here.

Broadly, the EC50 is the concentration at which the effect is half-maximal. The term AC50 denotes the concentration giving half of the maximal activity seen.

Assay [1] concerns the target T1, Heat shock factor protein 1 (Mus musculus, UniProt P38532).
T1 sequence (P38532 whole entry): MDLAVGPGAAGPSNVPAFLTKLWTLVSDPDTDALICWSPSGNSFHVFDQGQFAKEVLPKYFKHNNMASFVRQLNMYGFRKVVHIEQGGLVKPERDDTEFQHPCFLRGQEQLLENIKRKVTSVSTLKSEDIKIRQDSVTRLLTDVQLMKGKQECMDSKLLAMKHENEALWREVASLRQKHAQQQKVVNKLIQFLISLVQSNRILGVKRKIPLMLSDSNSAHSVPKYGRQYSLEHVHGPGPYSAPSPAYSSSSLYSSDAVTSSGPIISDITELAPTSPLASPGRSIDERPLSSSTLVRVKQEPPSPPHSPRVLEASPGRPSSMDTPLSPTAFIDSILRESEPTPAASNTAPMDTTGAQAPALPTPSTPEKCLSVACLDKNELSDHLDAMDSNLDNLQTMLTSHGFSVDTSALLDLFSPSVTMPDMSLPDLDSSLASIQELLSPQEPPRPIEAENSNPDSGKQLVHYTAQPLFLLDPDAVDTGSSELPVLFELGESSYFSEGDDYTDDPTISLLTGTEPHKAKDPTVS
Nature of the assay: HSF1 potentiators in luciferase reporter cells, confirmation, cell-based, NIH3T3, luminescence, dose retest (AID 435004).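 Note: stress induced by proteasome inhibitor MG132 added 30 min after compound; luciferase reporter driven by HSF1 response element in NIH3T3 cells; actives raise luminescence as potentiators of the MG132 stress response.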 It counts as functional.

The nature of assay [2]: inhibitors of intracellular T. cruzi replication, confirmation, NIH3T3 host cells, beta-gal luminescence (AID 2044).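 Note: intracellular parasites grown in NIH/3T3 mouse fibroblasts as host cells; luminescent beta-galactosidase reporter signal from transgenic T. cruzi replicating inside host cells; inhibitors lower the luminescence signal.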 It counts as functional, cell-based.
Assay [3] can be described thus: cytotoxicity toward NIH3T3 fibroblasts, dose response, counter-screen, cell-based, ATP luminescence, mouse fibroblasts (AID 2010).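 Note: cells exposed to compound for about 90 hours before reading.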 The assay is classed as functional.
A further assay deals with Paired box protein Pax-8 (Homo sapiens, UniProt Q06710). Nature of the assay: inhibitors of PAX8-driven TPO luciferase reporter, dose response, RMG-I cells, cherry-pick (AID 687027).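 Note: luciferase reporter driven by Pax8 target thyroperoxidase promoter measured by SteadyGlo luminescence.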 The assay is classed as functional, cell-based. Background: In a reporter assay the amount or activity of a reporter protein is the signal.
Another assay deals with T2, Protein RecA (Mycobacterium tuberculosis, UniProt P9WHJ3).
T2 sequence (P9WHJ3 whole entry): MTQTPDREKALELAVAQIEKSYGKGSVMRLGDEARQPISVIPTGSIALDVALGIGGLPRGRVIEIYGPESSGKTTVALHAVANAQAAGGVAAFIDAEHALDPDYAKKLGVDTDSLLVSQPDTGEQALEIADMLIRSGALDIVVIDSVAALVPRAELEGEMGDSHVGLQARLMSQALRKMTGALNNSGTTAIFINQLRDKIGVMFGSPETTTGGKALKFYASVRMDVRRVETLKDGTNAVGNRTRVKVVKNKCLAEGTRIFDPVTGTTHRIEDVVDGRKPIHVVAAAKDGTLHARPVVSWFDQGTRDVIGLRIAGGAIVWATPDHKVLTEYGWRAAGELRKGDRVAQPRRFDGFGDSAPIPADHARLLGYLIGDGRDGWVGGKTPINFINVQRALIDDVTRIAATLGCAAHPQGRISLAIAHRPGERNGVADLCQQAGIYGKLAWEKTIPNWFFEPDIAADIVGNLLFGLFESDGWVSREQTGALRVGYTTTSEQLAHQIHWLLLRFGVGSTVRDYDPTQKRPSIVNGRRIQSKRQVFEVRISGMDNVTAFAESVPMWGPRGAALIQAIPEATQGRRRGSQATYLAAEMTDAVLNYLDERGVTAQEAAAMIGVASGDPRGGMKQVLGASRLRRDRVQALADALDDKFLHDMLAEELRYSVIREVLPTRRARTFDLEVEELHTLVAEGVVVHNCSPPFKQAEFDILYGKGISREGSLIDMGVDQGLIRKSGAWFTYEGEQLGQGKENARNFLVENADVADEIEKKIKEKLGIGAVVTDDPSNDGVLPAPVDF
The assay is described as follows: Fluorescence Cell-Free Homogeneous Dose Retest to Identify Inhibitors of RecA-Intein Splicing Activity. [Related pubchem assays (depositor defined):AID2097, AID2223, AID489010, AID492950]. It counts as functional.

Assay [4] deals with Luciferin 4-monooxygenase (Photinus pyralis, UniProt P08659). Nature of the assay: firefly luciferase enzyme inhibitors, dose response, biochemical, luminescence (AID 1891).
Assay [5] is described as follows: Luminescence Cell-Based Dose Confirmation HTS to Identify Inhibitors of Platelet Dense Granule Release. [Related pubchem assays: 1663 (Primary HTS), 1678 (Summary of Project)]. It counts as functional.
In the next assay the target is T3, Cytochrome P450 1A2 (Homo sapiens, UniProt P05177).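 Note: PubChem cytochrome P450 panel assay, CYP1A2 panel member.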
T3 sequence (P05177 whole entry): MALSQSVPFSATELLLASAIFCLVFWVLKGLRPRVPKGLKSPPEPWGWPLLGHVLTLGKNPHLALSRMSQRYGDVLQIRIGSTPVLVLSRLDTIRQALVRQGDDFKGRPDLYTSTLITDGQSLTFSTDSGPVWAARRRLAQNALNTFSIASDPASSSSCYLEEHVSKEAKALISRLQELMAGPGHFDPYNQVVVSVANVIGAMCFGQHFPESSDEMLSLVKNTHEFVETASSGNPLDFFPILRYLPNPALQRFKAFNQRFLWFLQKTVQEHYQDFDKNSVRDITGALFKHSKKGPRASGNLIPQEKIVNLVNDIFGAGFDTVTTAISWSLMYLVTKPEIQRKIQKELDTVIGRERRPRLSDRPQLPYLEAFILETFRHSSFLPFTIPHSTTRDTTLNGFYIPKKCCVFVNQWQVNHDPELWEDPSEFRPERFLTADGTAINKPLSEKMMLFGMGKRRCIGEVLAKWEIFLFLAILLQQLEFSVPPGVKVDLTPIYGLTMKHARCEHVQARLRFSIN

Assay [6] can be described thus: Luminescence Cell-Based Dose Response HTS to Identify Activators of Luciferase Translation or Activity in H4 […] Cells. [Related pubchem assays: 1829 (Project Summary), 1814 (Primary HTS)]. It counts as functional.
The next assay concerns H4. The assay is described as follows: Luminescence Cell-Based Dose Response HTS to Identify Activators of 5'UTR Stem-Loop Driven Prion Protein mRNA Translation in H4 Neuroglioblastoma Cells. [Related pubchem assays: 1829 (Project Summary), 1814 (Primary HTS)]. The assay is classed as functional. Conditions: Homo sapiens.
A short description of assay [7]: Luminescence Cell-Based Dose Confirmation HTS to Identify Activators of 5'UTR Stem-Loop Driven Alpha-Synuclein mRNA Translation in H4 Neuroglioblastoma Cells. [Related pubchem assays: 1829 (Project Summary), 1814 (Primary HTS)]. It counts as functional.
Assay [8] in a line: microbe, parasite or virus in culture. Conditions: Mycobacterium tuberculosis. The assay is classed as functional.
Another assay deals with Streptococcus. The assay is described as follows: Group A Streptococcus viability loss, dose response, counter-screen for streptokinase expression inhibitor project, luminescence, BacTiterGlo (AID 1915).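 Note: potency for reduction of bacterial viability or growth.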 The assay is classed as functional, organism-based.
Assay [9] relates to Streptococcus sp. 'group A'. The assay is described as follows: growth inhibition of control SK(-) GAS strain, dose response, counter-screen for streptokinase expression inhibitor project, luminescence, kanamycin, BacTiterGlo, confirmation (AID 1900). The assay is classed as functional, organism-based. On the technique in general: A counterscreen serves to expose hits that act by an unwanted route or on another target.

For the next assay, the system named is INS1. Nature of the assay: beta cell apoptosis inhibitors, cytokine rescue, dose response, luminescence, retest (AID 449756).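 Note: cell death triggered by IL-1 beta plus TNF-alpha plus IFN-gamma mixture; protective hits raise ATP signal compared with cytokine alone wells.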 Conditions: Rattus norvegicus. It counts as functional, cell-based.
A short description of assay [10]: inhibitors of firefly luciferase expression or activity, dose response, H4 neuroglioma cells, luminescence (AID 1990). The assay is classed as functional, cell-based.
Assay [11] in a line: Luminescence Cell-Based Dose Response HTS to Identify Inhibitors of 5'UTR Stem-Loop Driven Prion Protein mRNA Translation in H4 Neuroglioblastoma Cells. [Related pubchem assays: 1827 (Project Summary), 1813 (Primary HTS)]. The assay is classed as functional.
A short description of assay [12]: inhibitors of SNCA 5'UTR-driven reporter translation, confirmation, H4 neuroglioma cells, luminescence (AID 1988). The assay is classed as functional, cell-based.

Sequence of Luciferin 4-monooxygenase (P08659 whole entry): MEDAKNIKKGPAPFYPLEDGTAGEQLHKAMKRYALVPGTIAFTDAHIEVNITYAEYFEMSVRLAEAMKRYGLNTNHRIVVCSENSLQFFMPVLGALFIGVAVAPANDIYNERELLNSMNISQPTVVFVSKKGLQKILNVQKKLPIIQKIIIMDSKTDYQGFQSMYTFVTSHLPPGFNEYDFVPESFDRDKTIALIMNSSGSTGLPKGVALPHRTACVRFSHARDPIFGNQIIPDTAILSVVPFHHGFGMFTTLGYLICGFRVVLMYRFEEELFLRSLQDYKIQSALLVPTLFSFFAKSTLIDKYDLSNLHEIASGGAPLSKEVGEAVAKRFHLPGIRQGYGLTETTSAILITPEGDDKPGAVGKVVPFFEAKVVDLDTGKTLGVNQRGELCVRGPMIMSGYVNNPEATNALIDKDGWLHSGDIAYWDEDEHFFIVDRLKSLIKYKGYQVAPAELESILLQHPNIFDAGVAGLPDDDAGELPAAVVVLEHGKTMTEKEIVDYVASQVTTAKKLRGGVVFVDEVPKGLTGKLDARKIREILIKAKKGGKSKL
Sequence of Paired box protein Pax-8 (Q06710 whole entry): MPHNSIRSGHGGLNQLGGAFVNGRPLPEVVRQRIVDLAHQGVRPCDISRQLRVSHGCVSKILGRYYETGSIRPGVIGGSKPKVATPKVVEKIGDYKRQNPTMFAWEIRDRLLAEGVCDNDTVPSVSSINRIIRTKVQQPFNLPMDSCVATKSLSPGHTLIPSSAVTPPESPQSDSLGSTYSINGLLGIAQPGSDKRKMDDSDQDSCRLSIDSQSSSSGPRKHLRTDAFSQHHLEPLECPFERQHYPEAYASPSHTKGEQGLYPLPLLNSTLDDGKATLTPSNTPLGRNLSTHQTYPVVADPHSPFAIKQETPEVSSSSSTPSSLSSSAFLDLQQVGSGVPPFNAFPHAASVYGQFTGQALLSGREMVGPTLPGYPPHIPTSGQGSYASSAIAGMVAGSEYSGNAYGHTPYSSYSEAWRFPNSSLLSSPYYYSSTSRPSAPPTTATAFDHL

In the case of `Cc1ccc2nc(-c3ccc4c(c3)OCCO4)cc(C(=O)O)c2c1`, the EC50 in assay [1] is > 260 µM (inactive).
Consider `O=C(NC1CCCCC1)C(c1cccs1)N(C(=O)Cc1c[nH]c2ccccc12)c1ccc(F)cc1` (stereo not drawn), for which the EC50 in assay [2] was 0.871 µM (active); in assay [3] it was 9.47 µM (active). Besides, at Paired box protein Pax-8, the AC50 was 11.7 µM (active).
`Cc1n[nH]c(O)c1[C@@H](c1ccccc1[N+](=O)[O-])C(C#N)C#N`: the EC50 at Protein RecA was 2.63 µM (active).
As for `COC(=O)C1CSC(C(=O)OC)N1C(=O)Nc1ccccc1` (stereo not drawn), the EC50 in assay [4] and in assay [5] was > 112 µM (not active) throughout. At Cytochrome P450 1A2, the AC50 was 25.1 µM (inconclusive).
Take `CC(C)(CO)NCC(O)COc1ccc2c(c1)CCC2` (stereo not drawn): the EC50 in [4] and in assay [5] was > 112 µM (not active) in each case.
For `CCN(CC)S(=O)(=O)c1ccc(OC)c(NC(=O)c2cc3c(=O)n4ccccc4nc3s2)c1`, the EC50 in [1] was > 260 µM (inactive).
In the case of `CN(Cc1ccccc1)C(=O)CCC1CCN(C(=O)CC2=CCCCC2)CC1`, in [1], the EC50 was > 260 µM (inactive).
In the case of `Cc1c(C(=O)N(Cc2ccncc2)CC2CCCO2)oc2c(F)cccc12` (stereo not drawn), in assay [1], the EC50 is > 260 µM (inactive).
Regarding `COC(=O)c1cc(NC2c3ccccc3C(=O)N2c2cccnc2)cc(C(=O)OC)c1` (stereo not drawn), the EC50 in [4] and in assay [5] was > 112 µM (not active) each time.
With `Cc1ccc(C(=O)NCCn2cc(SCC(=O)Nc3nnc(C)s3)c3ccccc32)cc1`, the EC50 was > 112 µM (not active) in assay [4]; 23.2 µM (active) in [6]; > 112 µM (not active) in assay [5]; > 120 µM (not active) in the assay with H4; 7.83 µM (active) in assay [7].
As to `Cc1ccc(O)c(C(=O)c2cnc3c(c2)CN(CCC(C)C)C(=O)N3)c1`, the EC50 in [1] is > 260 µM (inactive).
`Cc1cc(C)n2nc(SCc3cc(=O)oc4cc(C)c(C)cc34)nc2n1`: the EC50 in [4] and in assay [5] was > 112 µM (not active) in each case.
With `CCCCc1ccc(-c2ccc(Br)cc2)nc1`, in assay [1], the EC50 is > 260 µM (inactive).
Consider `COc1ccc(CN2CCCC(C(=O)c3ccc(SC)cc3)C2)cc1Cn1cccn1` (stereo not drawn), for which the CC50 in assay [8] was > 40 µM (active).
As for `O=C(NC1CCCCC1)C1CCCN1S(=O)(=O)c1cccc2nsnc12` (stereo not drawn), in assay [1], the EC50 is > 260 µM (inactive).
Consider `Cc1sc2ncnc(N3CCC(C(=O)NCC(=O)Nc4ccc(F)c(F)c4)CC3)c2c1C`, for which the EC50 was 8.01 µM (active) with Streptococcus and 4.44 µM (active) in assay [9]. Also, in [8], the CC50 is 30.4 µM (active).
`CCC(=O)N1c2ccc(S(=O)(=O)CCC(=O)N3CCN(c4ccccc4F)CC3)cc2CC1C` (stereo not drawn): the EC50 in [4] and in [5] was > 112 µM (not active) throughout.
As for `CCOc1ccc2nc(NC(=O)c3ccc(C)o3)sc2c1`, the results for the concentration giving a half-maximal response (EC50) in assay [4] and in assay [5] were 0.562 µM (active) and 5.87 µM (active), respectively.
As for `CN1C(C(=O)NCc2ccc(OC(F)(F)F)cc2)CC2Cn3c(nc4cc(Cl)c(Cl)cc43)C21` (stereo not drawn), in assay [8], the CC50 was 34.1 µM (active).
As for `Cc1cccc(C2c3[nH]c4ccccc4c3CCN2Cc2cnn(-c3ccc(F)cc3)c2)n1` (stereo not drawn), the EC50 in [1] is > 260 µM (inactive).
On to `CCOc1ccc(N2C=Nc3ccc(OCC)cc3C2)cc1`, for which the CC50 in assay [8] was > 40 µM (active).
As for `Cc1onc(-c2ccccc2)c1C(=O)N=C(N)c1ccc(Cl)cc1`, the figures for the EC50 in assay [4] and in assay [5] were > 112 µM (not active) and 28.4 µM (active), respectively.
For the compound `CN(C)CCCN(C(=O)CCOc1ccccc1)c1nc2c(F)cccc2s1`, the EC50 in assay [2] is 0.152 µM (active); in assay [3] it was 7.17 µM (active). On Paired box protein Pax-8, the AC50 is 7.17 µM (active).
`CC(C)(C)CN1CCC(Oc2cccc(C(=O)NCCCOc3cccnc3)c2)CC1`: the AC50 in the assay with INS1 was 1.25 µM (active).
Turning to `CC(Nc1cc(N2CCNCC2)ccc1[N+](=O)[O-])c1ccccc1` (stereo not drawn), the EC50 is > 120 µM (not active) in assay [10], > 120 µM (not active) in [11], 33.7 µM (active) in assay [12] and > 260 µM (inactive) in assay [1].
On to `O=S(=O)(CCc1ccccc1)/N=C/c1cccs1`, for which the EC50 in assay [4] and in [5] was > 112 µM (not active) throughout.

(Values after ChEMBL document CHEMBL1201862, “PubChem BioAssay data set” (2004).)
